According to patent publication US6380238B1, “Indoline derivatives as 5-HT2B and or 5-HTC receptor ligands” (Vernalis Research Limited, priority 1998, dated 2002):
Counter-ions that a name gives are not always drawn. Like-named read-outs stand apart in the source and are kept apart here.

Legend:
human 5-HT2B receptors = target: T1, human 5-HT2B receptors (Homo sapiens, UniProt P41595); assay: Binding to 5-HT2B receptor, [3H]-5-HT radioligand, CHO cell line
T1 construct: expressed in transfected cells; host or cells: CHO cell line
T1 sequence (P41595 whole entry): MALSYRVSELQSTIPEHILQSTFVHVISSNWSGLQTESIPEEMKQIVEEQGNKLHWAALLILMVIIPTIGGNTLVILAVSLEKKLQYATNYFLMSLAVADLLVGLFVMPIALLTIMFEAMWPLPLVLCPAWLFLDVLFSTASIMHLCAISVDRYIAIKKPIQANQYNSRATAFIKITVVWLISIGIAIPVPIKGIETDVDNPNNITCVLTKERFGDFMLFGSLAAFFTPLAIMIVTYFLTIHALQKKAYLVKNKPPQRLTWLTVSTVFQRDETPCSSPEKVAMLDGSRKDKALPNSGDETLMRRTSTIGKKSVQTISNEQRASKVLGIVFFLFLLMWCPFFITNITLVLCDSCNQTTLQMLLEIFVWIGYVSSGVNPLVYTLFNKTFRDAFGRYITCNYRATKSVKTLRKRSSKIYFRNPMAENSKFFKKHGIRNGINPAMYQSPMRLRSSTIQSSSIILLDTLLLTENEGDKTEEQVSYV
Experimental: (§1) 1. Binding to Serotonin Receptors
(§2) The binding of compounds of formula (I) to serotonin receptors was determined in vitro by standard methods. The preparations were investigated in accordance with the assays given hereinafter.
Method (b): For the binding to the 5-HT2B receptor the 5-HT2B receptors were radiolabeled with [^3H]-5-HT. The affinity of the compounds for human 5-HT2B receptors in a CHO cell line was determined according to the procedure of K. Schmnuck, C. Ullmer, P. Engels and H. Lubbert, FEBS Lett., 1994, 342, 85-90.

5-HT2C syndrome = 5-HT2C syndrome in rats (splayed limbs, hunched posture, retro-pulsion); assay type: in vivo; settings: 30 mg/kg s.c.
Experimental: The efficacy of 5-HT2C agonists was assessed for ability to induce a specific syndrome.
The 5-HT2C syndrome is a rapid screening method to assess the in vivo efficacy of 5-HT2C agonists through their ability to induce three specific behaviours in rats. The animals are dosed with either a positive control (mCPP), test compound or vehicle, either sub-cutaneously or p.o. The animals are observed on an open bench, typically 30, 60 and 180 minutes and the degree of syndrome is assessed over a two minute period on a scale of 0-3 depending on the presence and severity of splayed limbs, hunched posture and retro-pulsion, the three specific behaviours which constitute the syndrome. Data is analysed using Kruskal-Wallis Analysis of Variance followed with appropriate post-hoc tests. All statistical analysis are conducted using Excel version 7.0 (Microsoft Corp.) and Statistica version 5.0 (Statsoft, Inc.).

5-HT2C receptor [1] = target: T2, 5-HT2C receptor (Homo sapiens, UniProt P28335); assay: Binding to 5-HT2C receptor, [3H]-5-HT radioligand, CHO cell line; design: expressed in transfected cells; host or cells: CHO cell line
T2 sequence (P28335 33-458): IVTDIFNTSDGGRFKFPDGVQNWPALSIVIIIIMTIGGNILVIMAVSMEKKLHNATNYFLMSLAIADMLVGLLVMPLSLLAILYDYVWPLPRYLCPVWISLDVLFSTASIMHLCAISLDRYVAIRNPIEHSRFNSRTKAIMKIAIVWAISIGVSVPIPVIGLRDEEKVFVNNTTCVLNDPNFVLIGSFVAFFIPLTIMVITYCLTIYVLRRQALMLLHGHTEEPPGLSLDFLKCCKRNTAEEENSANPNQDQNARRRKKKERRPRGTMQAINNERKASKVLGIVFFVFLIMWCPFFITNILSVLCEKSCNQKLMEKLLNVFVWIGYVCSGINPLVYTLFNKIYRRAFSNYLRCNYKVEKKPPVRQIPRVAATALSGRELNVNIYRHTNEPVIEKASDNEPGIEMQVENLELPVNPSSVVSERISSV
Experimental: as §1, §2
Method (a): For the binding to the 5-HT2C receptor the 5-HT2C receptors were radiolabeled with [^3H]-5-HT. The affinity of the compounds for 5-HT2C receptors in a CHO cell line was determined according to the procedure of D. Hoyer, G. Engel and H. O. Kalkman, European J. Pharmacol., 1985, 118, 13-23.

5-HT2A receptor [2] = target: T3, 5-HT2A receptor (Homo sapiens, UniProt P28223); assay: Binding to 5-HT2A receptor, [125I]-DOI radioligand, CHO cell line; design: expressed in transfected cells; host or cells: CHO cell line
T3 sequence (P28223 whole entry): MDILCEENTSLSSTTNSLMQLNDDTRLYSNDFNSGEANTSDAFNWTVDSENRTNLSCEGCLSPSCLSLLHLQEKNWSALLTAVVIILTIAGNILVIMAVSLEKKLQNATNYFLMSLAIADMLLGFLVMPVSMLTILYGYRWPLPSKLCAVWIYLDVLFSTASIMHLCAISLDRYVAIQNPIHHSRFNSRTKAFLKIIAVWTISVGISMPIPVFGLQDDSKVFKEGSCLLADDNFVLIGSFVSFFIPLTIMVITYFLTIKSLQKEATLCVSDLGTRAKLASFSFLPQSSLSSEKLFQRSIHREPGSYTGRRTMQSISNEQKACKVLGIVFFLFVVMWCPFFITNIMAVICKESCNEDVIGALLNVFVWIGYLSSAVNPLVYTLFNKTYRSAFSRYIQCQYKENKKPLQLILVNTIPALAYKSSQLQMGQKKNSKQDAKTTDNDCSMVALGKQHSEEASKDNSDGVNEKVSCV
Experimental: as §1, §2
Method (c): For the binding to the 5-HT2A receptor the 5-HT2A receptors were radiolabeled with [^125I]-DOI. The affinity of the compounds for 5-HT2A receptors in a CHO cell line was determined according to the procedure of D. J. McKenna and S. J. Peroutka, J. Neurosci., 1989, 9, 3482-90.

5-HT2A receptor [3] = target: T3, 5-HT2A receptor; assay: Functional activity, FLIPR calcium assay in CHO cells expressing human 5-HT2A; assay type: cell-based; design: expressed in transfected cells; host or cells: CHO cells; settings: for Emax: CHO, read-out: h5-HT2A Relative Efficacy (%)
Experimental: (§3) The functional activity of compounds of formula (I) was assayed using a Fluorimetric Imaging Plate reader (FLIPR). CHO cells expressing the human 5-HT2C or human 5-HT2A receptors were counted and plated into standard 96 well microtitre plates on the day before testing to give a confluent monolayer. The cells were then dye loaded with the calcium sensitive dye, Fluo-3-AM. Unincorporated dye was removed using an automated cell washer to leave a total volume of 100 μL/well of assay buffer (Hanks balanced salt solution containing 20 mM Hepes and 2.5 mM probenecid). The drug (dissolved in 50 μL of the assay buffer) was added at a rate of 70 μL/sec to each well of the FLIPR 96 well plate during fluorescence measurements. The measurements were taken at 1 sec intervals and the maximum fluorescent signal was measured (approx 10-15 secs after drug addition) and compared with the response produced by 10 μM 5-HT (defined as 100%) to which it was expressed as a percentage response (relative efficacy). Dose response curves were constructed using Graphpad Prism (Graph Software Inc.).

5-HT2C receptor [4] = target: T2, 5-HT2C receptor; assay: Functional activity, FLIPR calcium assay in CHO cells expressing human 5-HT2C; assay type: cell-based; design: expressed in transfected cells; host or cells: CHO cells; settings: for Emax: CHO, read-out: h5-HT2C Relative Efficacy (%)
Experimental: as §3

[5] = cited from earlier work
[6] = cited from earlier work; remark: listed apart in the source
5-HT2C receptor [7] = settings: cited from earlier work
[8] = [3H]-5-HT, human receptor, CHO cell line, read-out: Ki (2B)
[9] = FLIPR, CHO cells, Fluo-3-AM, read-out: h5-HT2A EC50
[10] = FLIPR, CHO cells, Fluo-3-AM, read-out: h5-HT2C EC50
[11] = [3H]-5-HT, CHO cell line, read-out: Ki (2C)
[12] = [125I]-DOI, CHO cell line, read-out: Ki (2A)

SMILES | Ki (human 5-HT2B receptors) [µM] | Ki (5-HT2C receptor [1]) [µM] | Ki (5-HT2A receptor [2]) [µM] | EC50 (5-HT2A receptor [3]) [µM] | Emax (5-HT2A receptor [3]) [%] | EC50 (5-HT2C receptor [4]) [µM] | Emax (5-HT2C receptor [4]) [%] | other results
CC(N)CN1CCc2ccc(Cl)cc21 (racemic) [Example 1, (RS)-1-(6-Chloroindolin-1-yl)-2-propylamine Hydrochloride] | 0.113 | 0.357 | 0.405 | – | – | – | – | time for which significant pharmacological efficacy is maintained (5-HT2C syndrome) (5-HT2C syndrome): at least 180 minutes
C[C@H](N)CN1CCc2ccc(Cl)cc21 [Example 10, (S)-1-(6-Chloroindolin-1-yl)-2-propylamine Fumarate] | 0.138 | 0.055 | 0.252 | 2.21 | 49 | 0.125 | 62 | –
C[C@H](N)CN1CCc2ccc(Br)cc21 [Example 12] | 0.042 | 0.077 | 1.09 | 2.41 | 49 | 0.23 | 59 | –
COc1ccc2c(c1)N(C[C@H](C)N)CC2 [Example 13] | 0.175 | 0.122 | 0.461 | 0.386 | 72 | 0.075 | 74 | –
C[C@H](N)CN1CCc2cc(F)c(F)cc21 [Example 22] | 0.092 | 0.26 | 0.325 | 2.57 | 57 | 0.083 | 87 | –
C[C@H](N)CN1CCc2ccc(C(F)(F)F)cc21 [Example 24] | 0.148 | 0.235 | 1.87 | 3.65 | 33 | 0.131 | 72 | –
C[C@H](N)CN1CCc2cc(F)c(Br)cc21 [Example 25] | 0.022 | 0.063 | 0.156 | 1.24 | 57 | 0.021 | 81 | –
C[C@@H](N)CN1CCc2ccc(C(F)(F)F)cc21 [Example 26] | 0.761 | 1.16 | 1.26 | – | – | – | – | –
NCCN1CCc2ccc(Br)cc21 [Example 50, 2-(6-Bromoindolin-1-yl)-1-ethylamine Fumarate] | – | – | – | – | 25 | – | 78 | Ki (human 5-HT2B receptors; [8]): 0.159 µM; EC50 (5-HT2A receptor [3]; [9]): 4.08 µM; EC50 (5-HT2C receptor [4]; [10]): 0.038 µM; Ki (5-HT2C receptor [1]; [11]): 0.061 µM; Ki (5-HT2A receptor [2]; [12]): 0.332 µM
NCCN1CCc2ccc(Cl)cc21 [Example 51, 2-(6-Chloroindolin-1-yl)-1-ethylamine Fumarate] | – | – | – | – | 45 | – | 88 | Ki (human 5-HT2B receptors; [8]): 0.14 µM; EC50 (5-HT2A receptor [3]; [9]): 1.89 µM; EC50 (5-HT2C receptor [4]; [10]): 0.036 µM; Ki (5-HT2C receptor [1]; [11]): 0.165 µM; Ki (5-HT2A receptor [2]; [12]): 1.11 µM
Clc1cccc(N2CCNCC2)c1 [mCPP, m-chlorophenylpiperazine] | – | – | – | – | – | – | – | appearance of the behavioural satiety sequence ([5]; rat, in vivo): accelerate the appearance of the behavioural satiety sequence; food intake in rats ([5]; rats): reduce food intake; appetite and body weight of obese subjects ([6]; obese male and female subjects, subchronic treatment for a 14 day period): decreased the appetite and body weight; food intake in female volunteers ([6]; single dose, female volunteers): decreased food intake; anorectic action in 5-HT2C receptor knockout mutant mice (5-HT2C receptor [7]): absent
